# According to patent US4416885A, “Use of isopropylaminopyrimidine in the chemotherapy of muscular dystrophy, myopathy and myotonia” (priority 1982, dated 1983):
# What was measured:
# [1] = test system: plasma CPK (creatine phosphokinase); test: Plasma CPK; assay type: in vivo, chicken
# Procedure: (§1) Chemotherapy was assessed by application of seven different parameters: physical tests of muscular disability, namely the flip test and wing apposition (W.A.) measurements; biochemical assays of serum and muscle enzume levels of creatine phosphokinase (CPK), pyruvate kinase (PK) and acetylcholinesterase (AChE); and histological comparisons of treated and untreated muscle. Toxicity studies (weight loss, etc.) were also used. A very comprehensive profile of the drug was thus obtained which related to all the known, highly characteristic features of the disease which are applicable to both the animal model and the human.
# Plasma CPK rises dramatically in the dystrophic chicken as it does also in the human disease. The normal chicken has 200-300 U/l CPK, compared to about 20,000 U/l in the untreated dystrophic chicken at its peak. It rises to these high levels over a period of two months and is, therefore, a significant index of the disease. […]
# (§2) Finally, oral therapy with IAPP was undertaken at gradually increasing dosages up to 1 g/Kg/day. The parameters (physical, biochemical and histological) measured previously were again used to test the efficacy of the drug; five different dosages were used orally, each being given for 30-60 days, daily (Tables VII-XI). A total of 75 animals were treated in the current study with IAPP and 70 control animals were used.
# [2] = test system: plasma AChE (acetylcholinesterase); test: Plasma AChE; assay type: in vivo, chicken; design: AChE: unit not given here
# Procedure: as §1
# The elevation of this enzyme in the dystrophic chicken occurs from 8 days and reaches a plateau at 100 days, compared to the normal animal where the levels continue to decline slowly. […]
# as §2
# [3] = test system: dystrophic New Hampshire chickens, line 413; test: Toxicity (weight change, other symptoms) in dystrophic chickens; assay type: in vivo, chicken
# Procedure: Weight measurements are taken weekly, weight loss, diarrhea or any other symptoms are noted. No drugs have yet been described for dystrophy with a beneficial effect without an accompanying weight loss.
# The drug was administered daily in water, injected intra-peritoneally, the amount being adjusted on a weekly basis according to the animal's weight.
# [4] = test system: dystrophic 413 muscle explants; test: Microtubule complexes in muscle explants of injected dystrophic chickens; assay type: in vivo, chicken
# Source text: (§3) Essentially, these experiments were divided into three subgroups, taken from the previous Table:
# (§4) 413A, 413B, 412A, 412B: All were sacrificed after 4 injections and muscle explants placed in culture.
# (§5) 413C, 412C: All were sacrificed after 8 injections and muscle explants were placed in culture.
# (§6) 413D, 412D: All were sacrificed after 10 injections and muscle explants placed in culture.
# (§7) All explants were placed in CMRL culture medium containing 5% horse serum, 15% fetal bovine serum and 1% antibiotics and allowed to grow for 5-7 days before being fixed and observed for the presence or absence of microtubules. No IAPP was added to the culture medium during the 5-7 days in culture.
# [5] = test system: normal 412 muscle explants; test: Microtubule complexes in muscle explants of injected normal chickens; assay type: in vivo, chicken
# Source text: as §3, §4, §5, §6, §7
# Carrier monocytes = test: Effect on human monocytes in culture (flat cells), carrier; assay type: cell-based; details: carrier monocytes + IAPP, six individuals, cultured 5-7 days; without IAPP 35.3%; preliminary
# Source text: In the experiments adding IAPP to such cultures, the preliminary results were as follows: […]
# [6] = 200 mg/Kg i.p. daily for 30 days, day 28 ex ovo
# [7] = 200 mg/Kg i.p. daily for 30 days, day 45 ex ovo
# [8] = 200 mg/Kg i.p. daily for 30 days, day 56 ex ovo
# [9] = 200 mg/Kg i.p. daily for 30 days, day 84 ex ovo
# [10] = 300 mg/Kg i.p. daily for 30 days, day 28 ex ovo
# [11] = 300 mg/Kg i.p. daily for 30 days, day 45 ex ovo
# [12] = 300 mg/Kg i.p. daily for 30 days, day 56 ex ovo
# [13] = 300 mg/Kg i.p. daily for 30 days, day 84 ex ovo
# [14] = 300 mg/Kg i.p. three times weekly for 30 days, day 28 ex ovo
# [15] = 300 mg/Kg i.p. three times weekly for 30 days, day 45 ex ovo
# [16] = 300 mg/Kg i.p. three times weekly for 30 days, day 84 ex ovo
# [17] = Exp. 2, 40 mg/Kg i.p. daily, day 7-13
# [18] = Exp. 2, 40 mg/Kg i.p. daily, day 14-20
# [19] = Exp. 2, 40 mg/Kg i.p. daily, day 21-27
# [20] = Exp. 2, 40 mg/Kg i.p. daily, day 28-34
# [21] = Exp. 2, 40 mg/Kg i.p. daily, day 35-41
# [22] = Exp. 2, 40 mg/Kg i.p. daily, day 42-48
# [23] = Exp. 2, 40 mg/Kg i.p. daily, day 56-62
# [24] = Exp. 2, 40 mg/Kg i.p. daily, day 63-71
# [25] = Exp. 3, 70 mg/Kg i.p. daily, day 21-27
# [26] = Exp. 3, 70 mg/Kg i.p. daily, day 28-34
# [27] = Table VII, oral 200 mg/Kg, 60 days, day 28 ex ovo
# [28] = Table VII, oral 200 mg/Kg, 60 days, day 35 ex ovo
# [29] = Table VII, oral 200 mg/Kg, 60 days, day 45 ex ovo
# [30] = Table VII, oral 200 mg/Kg, 60 days, day 60 ex ovo
# [31] = oral 300 mg/Kg daily, day 28 ex ovo
# [32] = oral 300 mg/Kg daily, day 35 ex ovo
# [33] = oral 450 mg/Kg daily for 45 days, day 28 ex ovo
# [34] = oral 450 mg/Kg daily for 45 days, day 35 ex ovo
# [35] = oral 450 mg/Kg daily for 45 days, day 50 ex ovo
# [36] = oral 600 mg/Kg daily, day 28 ex ovo
# [37] = oral 600 mg/Kg daily, day 35 ex ovo
# [38] = oral 600 mg/Kg daily, day 50 ex ovo
# [39] = oral 1 g/Kg daily, day 28 ex ovo
# [40] = oral 1 g/Kg daily, day 35 ex ovo
smiles,measurement,setting,value
"CC(C)Nc1ncccn1.O=P(O)(O)O [IAPP, 2-isopropylaminopyrimidine orthophosphate]",CPK,[1]; [6],478 mU/ml
same,"CPK, % change from control",[1]; [6],-61%
same,CPK,[1]; [7],4810 mU/ml
same,"CPK, % change from control",[1]; [7],-40%
same,CPK,[1]; [8],5412 mU/ml
same,"CPK, % change from control",[1]; [8],-48%
same,CPK,[1]; [9],"13,540 mU/ml"
same,"CPK, % change from control",[1]; [9],-36%
same,CPK,[1]; [10],651 mU/ml
same,"CPK, % change from control",[1]; [10],-46%
same,CPK,[1]; [11],4505 mU/ml
same,"CPK, % change from control",[1]; [11],-44%
same,CPK,[1]; [12],7629 mU/ml
same,"CPK, % change from control",[1]; [12],-27%
same,CPK,[1]; [13],"24,248 mU/ml"
same,"CPK, % change from control",[1]; [13],+15%
same,CPK,[1]; [14],651 mU/ml
same,"CPK, % change from control",[1]; [14],-46%
same,CPK,[1]; [15],6076 mU/ml
same,"CPK, % change from control",[1]; [15],-24%
same,CPK,"[1]; 300 mg/Kg i.p. three times weekly for 30 days, day 56 ex ovo",7944 mU/ml
same,CPK,[1]; [16],"16,602 mU/ml"
same,"CPK, % change from control",[1]; [16],-21%
same,% CPK Change vs untreated dystrophic controls,[1]; [17],-8%
same,% CPK Change vs untreated dystrophic controls,[1]; [18],-46%
same,% CPK Change vs untreated dystrophic controls,[1]; [19],-21%
same,% CPK Change vs untreated dystrophic controls,[1]; [20],-59%
same,% CPK Change vs untreated dystrophic controls,[1]; [21],-57%
same,% CPK Change vs untreated dystrophic controls,[1]; [22],-72%
same,% CPK Change vs untreated dystrophic controls,[1]; [23],-47%
same,% CPK Change vs untreated dystrophic controls,[1]; [24],-32%
same,% CPK Change vs untreated dystrophic controls,[1]; [25],-51%
same,% CPK Change vs untreated dystrophic controls,[1]; [26],-53%
same,CPK,[1]; [27],3496 mU/ml
same,"CPK, % change from control",[1]; [27],-31%
same,CPK,[1]; [28],7336 mU/ml
same,"CPK, % change from control",[1]; [28],-1%
same,CPK,[1]; [29],9638 mU/ml
same,"CPK, % change from control",[1]; [29],-18%
same,CPK,[1]; [30],"10,860 mU/ml"
same,"CPK, % change from control",[1]; [30],-24%
same,Reduction in plasma CPK levels,"[1]; oral 200 mg/Kg, 60 days",moderate reduction
same,CPK,[1]; [31],3794 mU/ml
same,"CPK, % change from control",[1]; [31],-23%
same,CPK,[1]; [32],6690 mU/ml
same,"CPK, % change from control",[1]; [32],-30%
same,CPK,[1]; [33],4713 mU/ml
same,"CPK, % change from control",[1]; [33],-18%
same,CPK,[1]; [34],6483 mU/ml
same,"CPK, % change from control",[1]; [34],-24%
same,CPK,[1]; [35],"17,975 mU/ml"
same,"CPK, % change from control",[1]; [35],+30%
same,CPK,[1]; [36],2658 mU/ml
same,"CPK, % change from control",[1]; [36],-53%
same,CPK,[1]; [37],4712 mU/ml
same,"CPK, % change from control",[1]; [37],-45%
same,CPK,[1]; [38],9084 mU/ml
same,"CPK, % change from control",[1]; [38],-34%
same,CPK,[1]; [39],2217 mU/ml
same,"CPK, % change from control",[1]; [39],-63%
same,CPK,[1]; [40],4018 mU/ml
same,"CPK, % change from control",[1]; [40],-68%
same,AChE,[2]; [7],60.4
same,"AChE, % change from control",[2]; [7],-29%
same,AChE,[2]; [9],87
same,"AChE, % change from control",[2]; [9],-46%
same,AChE,[2]; [11],48.4
same,"AChE, % change from control",[2]; [11],-43%
same,AChE,[2]; [15],62.9
same,"AChE, % change from control",[2]; [15],-27%
same,AChE,[2]; [16],90
same,"AChE, % change from control",[2]; [16],-45%
same,% AChE Change vs untreated dystrophic controls,[2]; [22],-55%
same,AChE,[2]; [28],77.8
same,"AChE, % change from control",[2]; [28],-6%
same,AChE,[2]; [33],520
same,"AChE, % change from control",[2]; [33],-12%
same,AChE,[2]; [36],46.9
same,"AChE, % change from control",[2]; [36],-21%
same,AChE,[2]; [40],53.9
same,"AChE, % change from control",[2]; [40],-47%
same,Weight loss (after 30 days' treatment),"[3]; 200 mg/Kg i.p. daily, level at which it became significant",twenty
same,% Weight Change vs untreated dystrophic controls,[3]; [17],-0.04%
same,% Weight Change vs untreated dystrophic controls,[3]; [18],-0.07%
same,% Weight Change vs untreated dystrophic controls,[3]; [19],-0.07%
same,% Weight Change vs untreated dystrophic controls,[3]; [20],-0.15%
same,% Weight Change vs untreated dystrophic controls,[3]; [21],-0.08%
same,% Weight Change vs untreated dystrophic controls,[3]; [22],-0.04%
same,% Weight Change vs untreated dystrophic controls,"[3]; Exp. 2, 40 mg/Kg i.p. daily, day 49-55",-0.04%
same,% Weight Change vs untreated dystrophic controls,[3]; [23],-0.05%
same,% Weight Change vs untreated dystrophic controls,[3]; [24],-0.01%
same,Toxicity as evidenced by weight loss,"[3]; Exp. 3, 70 mg/Kg","detectable toxicity as evidenced by weight loss, but this is still moderate"
same,% Weight Change vs untreated dystrophic controls,"[3]; Exp. 3, 70 mg/Kg i.p. daily, day 7-13",0%
same,% Weight Change vs untreated dystrophic controls,"[3]; Exp. 3, 70 mg/Kg i.p. daily, day 14-20",-2%
same,% Weight Change vs untreated dystrophic controls,[3]; [25],-3%
same,% Weight Change vs untreated dystrophic controls,[3]; [26],-9%
same,Maximum Weight Loss,"[3]; Table VII, oral 200 mg/Kg, 60 days",3%
same,Weight loss / toxic symptoms,"[3]; initial single injection 100 mg/Kg, over 7 days","no weight loss over 7 days, nor any other toxic symptoms"
same,% Full Complexes Microtubules,"[4]; 413B, Subgroup A, after 4 injections of 50 mg/Kg, 413A control 31%",58%
same,% Full Complexes Microtubules,"[4]; 413C, Subgroup B, after 8 injections of 50 mg/Kg",60%
same,% Full Complexes Microtubules,"[4]; 413D, Subgroup C, after 10 injections of 50 mg/Kg",74%
same,% Full Complexes Microtubules,"[5]; 412B, Subgroup A, after 4 injections of 50 mg/Kg, 412A control 86%",73%
same,% Full Complexes Microtubules,"[5]; 412C, Subgroup B, after 8 injections of 50 mg/Kg",76%
same,% Full Complexes Microtubules,"[5]; 412D, Subgroup C, after 10 injections of 50 mg/Kg",80%
same,% Flat Cells,Carrier monocytes,50.0%
